From US9023789B2, “Amylin analogs and pharmaceutical compositions thereof” (Novo Nordisk A/S, priority 2012, dated 2015)
In brackets after ≈: the same amount, converted by molar mass. Like-named read-outs stand apart in the source and are kept apart here. Numbered stars: 1 amine (or outer) side, 2 acyl side, 3 side chain; on linkers, the order of the positions; unused ones are H or OH. Bridge positions count the residues as written; N and C are the ends. Side chains are listed from the residue outwards. Peptide text beside a SMILES is read from it. * marks the point of attachment. C20 diacid = O=C(O)CCCCCCCCCCCCCCCCCCC(=O)*; γGlu = O=C(O)[C@H](CCC(=O)[*:2])N[*:1]

Legend:
rat calcitonin receptor = biological target: T1, rat calcitonin receptor (Rattus norvegicus, UniProt P32214); test: ASSAY (VIII) binding to the rat calcitonin receptor; conditions: Table 7, read-out: rCTR bind IC50
T1 construct: expressed in transfected cells; host or cells: BHK tk'ts 13 (transient, FuGENE 6), membranes
T1 sequence (P32214 25-479 isoform P32214-2 limits assumed): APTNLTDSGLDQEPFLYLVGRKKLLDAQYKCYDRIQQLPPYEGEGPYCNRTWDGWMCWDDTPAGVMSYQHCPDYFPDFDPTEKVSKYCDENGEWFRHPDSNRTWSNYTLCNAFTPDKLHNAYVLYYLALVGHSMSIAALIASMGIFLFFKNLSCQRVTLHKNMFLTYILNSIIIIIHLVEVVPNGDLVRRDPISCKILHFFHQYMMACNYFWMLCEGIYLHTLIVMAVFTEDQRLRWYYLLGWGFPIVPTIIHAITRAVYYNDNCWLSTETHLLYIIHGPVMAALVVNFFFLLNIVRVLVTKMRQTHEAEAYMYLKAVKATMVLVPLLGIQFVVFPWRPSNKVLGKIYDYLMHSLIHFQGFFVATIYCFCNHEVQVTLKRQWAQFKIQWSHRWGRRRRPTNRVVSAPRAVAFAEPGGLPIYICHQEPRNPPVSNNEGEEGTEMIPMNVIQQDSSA
In short: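 BHK tk′ts 13 cells, transient rat calcitonin receptor transfection; DMEM + 10% FBS; harvest ~48 h post-transfection; membrane prep.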

[1] = biological target: T2, human amylin 3(a) receptor (human calcitonin receptor + RAMP-3) in BHK570 cells (Homo sapiens, UniProt O60896+P30988); test: ASSAY (II)a functional assay, human amylin receptor (CRE luciferase); format: cell-based
T2 construct: expressed in transfected cells
In short: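 Functional agonism was measured by CRE-luciferase reporter luminescence in BHK cells bearing calcitonin receptor, or calcitonin receptor plus RAMP-3 as the amylin 3(a) receptor. Stimulation lasted 3 hours at 37° C.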

[2] = ASSAY (IV) determination of solubility; format: physicochemical
In short: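 Solubility measured by UPLC of supernatant after centrifugation, following 18 h at room temperature. Peptide ([…] in water) was diluted 1:1 into 100 mM glycylglycine (pH 3.0, 4.0, 5.0) or bistrispropane (pH 6.0-8.0).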

[3] = biological target: T3, human amylin receptor (membranes from Amylin 3(a)/CRE-luc cells) (Homo sapiens, UniProt O60896+P30988); test: ASSAY (V) binding to the human amylin receptor (SPA, 125I-rat amylin);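 also: competition binding of cell membranes (35 ng/µL) mixed with SPA beads in 384-well plates at 40 µL total volume, read by scintillation counting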
T3 construct: expressed in transfected cells
T3 sequence (P30988 25-474): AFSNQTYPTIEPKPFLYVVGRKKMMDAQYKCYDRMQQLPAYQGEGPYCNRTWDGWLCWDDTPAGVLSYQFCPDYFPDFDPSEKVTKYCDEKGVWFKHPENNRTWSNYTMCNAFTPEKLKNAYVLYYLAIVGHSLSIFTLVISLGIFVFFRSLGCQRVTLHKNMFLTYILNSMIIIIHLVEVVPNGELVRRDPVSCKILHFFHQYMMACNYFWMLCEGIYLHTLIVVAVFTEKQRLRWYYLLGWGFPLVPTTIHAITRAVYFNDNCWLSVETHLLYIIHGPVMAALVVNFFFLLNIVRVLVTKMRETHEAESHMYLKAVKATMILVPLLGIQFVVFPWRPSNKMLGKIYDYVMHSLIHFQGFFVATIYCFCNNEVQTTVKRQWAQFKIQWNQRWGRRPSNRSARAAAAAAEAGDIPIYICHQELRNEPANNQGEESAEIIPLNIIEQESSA
T3 sequence (O60896 24-148 partner): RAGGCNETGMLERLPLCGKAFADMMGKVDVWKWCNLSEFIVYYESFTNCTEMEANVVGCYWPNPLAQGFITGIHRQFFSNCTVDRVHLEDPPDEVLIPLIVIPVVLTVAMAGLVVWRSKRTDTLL

[4] = biological target: T4, rat amylin receptor (rat calcitonin receptor + rat RAMP 3) (Rattus norvegicus, UniProt P32214+Q9JJ73); test: ASSAY (VI) binding to the rat amylin receptor; conditions: for IC50: binding to rat amylin receptor, read-out: rAmylin-R bind IC50
T4 construct: expressed in transfected cells; host or cells: BHK tk'ts 13 (transient, FuGENE 6), membranes
T4 sequence (P32214 25-479 isoform P32214-2 limits assumed): T1 sequence (P32214 25-479 isoform P32214-2 limits assumed)
T4 sequence (Q9JJ73 23-147 partner): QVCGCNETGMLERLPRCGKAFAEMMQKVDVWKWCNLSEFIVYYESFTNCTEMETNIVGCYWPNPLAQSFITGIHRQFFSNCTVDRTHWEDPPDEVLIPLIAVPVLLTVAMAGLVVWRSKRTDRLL
In short: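 The cell-membrane assay assessed binding at the rat amylin receptor. BHK tk′ts 13 cells were transfected transiently with rat calcitonin receptor, with FuGENE® 6 (Roche) as the transfection reagent, used per the manufacturer's recommendations. Approximately 48 hours after transfection the cells were harvested, and membranes were prepared for measuring binding.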

[5] = hCTR funct. EC50 divided by hAmylin-R funct. EC50
[6] = hCTR funct. EC50 over hAmylin-R funct. EC50
[7] = human functional selectivity: hCTR funct. EC50 / hAmylin-R funct. EC50
[8] = bistrispropane buffer, pH 6.5, read-out: Solubility pH 6.5 Concentration
[9] = bistrispropane buffer, pH 7.5, read-out: Solubility pH 7.5 Concentration
[10] = bistrispropane buffer, pH 6.0, read-out: Solubility pH 6.0 Concentration
[11] = bistrispropane buffer, pH 7.0, read-out: Solubility pH 7.0 Concentration
[12] = bistrispropane buffer, pH 8.0, read-out: Solubility pH 8.0 Concentration
[13] = glycylglycine buffer, pH 3.0, read-out: Solubility pH 3.0 Concentration
[14] = glycylglycine buffer, pH 4.0, read-out: Solubility pH 4.0 Concentration
[15] = glycylglycine buffer, pH 5.0, read-out: Solubility pH 5.0 Concentration
[16] = Table 5, selectivity, hCTR bind IC50 / hAmylin-R bind IC50
[17] = Table 5a, selectivity, hCTR bind IC50 / hAmylin-R bind IC50
[18] = Table 5b, selectivity, hCTR bind IC50 / hAmylin-R bind IC50
[19] = Table 5c, selectivity, hCTR bind IC50 / hAmylin-R bind IC50
[20] = Table 7, human binding selectivity, included for comparison
[21] = Table 7a (preferred compounds), human binding selectivity, included for comparison
[22] = ratio of human calcitonin receptor binding IC50 to human amylin receptor binding IC50
[23] = Table 7, rat binding selectivity, rCTR IC50 / rAmylin-R IC50
[24] = Table 7a (preferred compounds), rat binding selectivity, rCTR IC50 / rAmylin-R IC50
[25] = ratio of rCTR bind IC50 to rAmylin-R bind IC50

IC50 (rat calcitonin receptor)	Ratio hCT/hAmylin funct. [1, 5]	Ratio hCT/hAmylin funct. [1, 7]	solubility at 18 h [2, 8]	solubility at 18 h [2, 9]	solubility at 18 h [2, 10]	solubility at 18 h [2, 11]	solubility at 18 h [2, 12]	solubility at 18 h [2, 13]	solubility at 18 h [2, 14]	solubility at 18 h [2, 15]	Ratio hCT/hAmylin binding [3, 16]	Ratio hCT/hAmylin binding [3, 17]	Ratio hCT/hAmylin binding [3, 18]	Ratio hCT/hAmylin binding [3, 19]	Ratio hCT/hAmylin binding [3, 20]	Ratio hCT/hAmylin binding [3, 21]	Ratio hCT/hAmylin binding [3, 22]	IC50 ([4]; Table 7)	Ratio rCT/rAmylin binding [4, 23]	SMILES	also measured
96.4 nM	11.6	11.6	≥ 200 µM	≥ 200 µM	≥ 200 µM	≥ 200 µM	≥ 200 µM	≥ 200 µM	≥ 200 µM	≥ 200 µM	29.0	29.0	29.0	29.0	29.0	29.0	29.0	1.77 nM	54.5	CC[C@H](C)[C@H](NC(=O)[C@H](C)NC(=O)CNC(=O)[C@H](Cc1ccccc1)NC(=O)[C@H](CC(N)=O)NC(=O)[C@@H]1CCCN1C(=O)[C@H](CO)NC(=O)[C@H](CO)NC(=O)[C@H](Cc1c[nH]cn1)NC(=O)[C@H](CCCNC(=N)N)NC(=O)[C@H](CC(C)C)NC(=O)[C@H](Cc1ccccc1)NC(=O)[C@H](CC(N)=O)NC(=O)[C@H](C)NC(=O)[C@H](CC(C)C)NC(=O)[C@H](CCCNC(=N)N)NC(=O)[C@H](CCC(N)=O)NC(=O)[C@@H](NC(=O)[C@H](C)NC(=O)[C@@H]1CSSC[C@H](NC(=O)[C@H](CCCCN)NC(=O)CC[C@H](NC(=O)CCCCCCCCCCCCCCCCCCC(=O)O)C(=O)O)C(=O)N[C@@H](CC(N)=O)C(=O)N[C@@H]([C@@H](C)O)C(=O)N[C@@H](C)C(=O)N[C@@H]([C@@H](C)O)C(=O)N1)[C@@H](C)O)C(=O)N1CCC[C@H]1C(=O)N[C@@H](CO)C(=O)N[C@@H](CO)C(=O)N[C@H](C(=O)N[C@@H](CC(N)=O)C(=O)N[C@H](C(=O)NCC(=O)N[C@@H](CCCNC(=N)N)C(=O)N[C@@H](CC(N)=O)C(=O)N[C@H](C(=O)N[C@@H](Cc1ccc(O)cc1)C(N)=O)[C@@H](C)O)C(C)C)[C@@H](C)O [Example 39] ({C20 diacid-γGlu}-KCNTATCATQRLANFLRHSSPNFGAIPSSTNVGRNTY-NH2; disulfide 2-7)	Ratio hCT/hAmylin funct. [1, 6]: 11.6; EC50 ([1]; human amylin receptor functional potency, assay (II), read-out: hAmylin-R funct. EC50): 0.217 nM; IC50 ([3]; Table 4, read-out: hAmylin-R bind IC50): 0.665 nM; Ratio rCT/rAmylin binding [4, 24]: 54.5; Ratio rCT/rAmylin binding [4, 25]: 54.5
14.7 nM	5.2	5.2	≥ 200 µM	≥ 200 µM	≥ 200 µM	≥ 200 µM	178 µM (≈ 786 µg/mL)	≥ 200 µM	≥ 200 µM	≥ 200 µM	51.6	51.6	51.6	51.6	51.6	51.6	51.6	0.172 nM	85.4	CC[C@H](C)[C@H](NC(=O)[C@H](C)NC(=O)CNC(=O)[C@H](Cc1ccccc1)NC(=O)[C@H](CC(N)=O)NC(=O)[C@@H]1CCCN1C(=O)[C@H](CO)NC(=O)[C@H](CO)NC(=O)[C@H](Cc1c[nH]cn1)NC(=O)[C@H](CCCNC(=N)N)NC(=O)[C@H](CC(C)C)NC(=O)[C@H](Cc1ccccc1)NC(=O)[C@H](Cc1c[nH]cn1)NC(=O)[C@H](C)NC(=O)[C@H](CC(C)C)NC(=O)[C@H](CCCNC(=N)N)NC(=O)[C@H](CCC(N)=O)NC(=O)[C@@H](NC(=O)[C@H](C)NC(=O)[C@@H]1CSSC[C@H](NC(=O)[C@@H](N)CCCCNC(=O)CC[C@H](NC(=O)CCCCCCCCCCCCCCCCCCC(=O)O)C(=O)O)C(=O)N[C@@H](CC(N)=O)C(=O)N[C@@H]([C@@H](C)O)C(=O)N[C@@H](C)C(=O)N[C@@H]([C@@H](C)O)C(=O)N1)[C@@H](C)O)C(=O)N1CCC[C@H]1C(=O)N[C@@H](CO)C(=O)N[C@@H](CO)C(=O)N[C@H](C(=O)N[C@@H](CC(N)=O)C(=O)N[C@H](C(=O)NCC(=O)N1CCC[C@H]1C(=O)N[C@@H](CC(N)=O)C(=O)N[C@H](C(=O)N[C@@H](Cc1ccc(O)cc1)C(N)=O)[C@@H](C)O)C(C)C)[C@@H](C)O [Example 67] (H-K([γGlu-C20 diacid])CNTATCATQRLAHFLRHSSPNFGAIPSSTNVGPNTY-NH2; disulfide 2-7 (inferred); N-terminus assumed)	Ratio rCT/rAmylin binding [4, 24]: 85.4; Ratio rCT/rAmylin binding [4, 25]: 85.4
15.4 nM	17.0	17.0	≥ 200 µM	≥ 200 µM	≥ 200 µM	≥ 200 µM	147 µM (≈ 654 µg/mL)	≥ 200 µM	≥ 200 µM	≥ 200 µM	38.6	38.6	38.6	38.6	38.6	38.6	38.6	0.339 nM	45.5	CC[C@H](C)[C@H](NC(=O)[C@H](C)NC(=O)CNC(=O)[C@H](Cc1ccccc1)NC(=O)[C@H](CC(N)=O)NC(=O)[C@@H]1CCCN1C(=O)[C@H](CO)NC(=O)[C@H](CO)NC(=O)[C@H](Cc1c[nH]cn1)NC(=O)[C@H](CCCNC(=N)N)NC(=O)[C@H](CC(C)C)NC(=O)[C@H](Cc1ccccc1)NC(=O)[C@H](CCC(=O)O)NC(=O)[C@H](C)NC(=O)[C@H](CC(C)C)NC(=O)[C@H](CCCNC(=N)N)NC(=O)[C@H](CCC(N)=O)NC(=O)[C@@H](NC(=O)[C@H](C)NC(=O)[C@@H]1CSSC[C@H](NC(=O)[C@@H](N)CCCCNC(=O)CC[C@H](NC(=O)CCCCCCCCCCCCCCCCCCC(=O)O)C(=O)O)C(=O)N[C@@H](CC(N)=O)C(=O)N[C@@H]([C@@H](C)O)C(=O)N[C@@H](C)C(=O)N[C@@H]([C@@H](C)O)C(=O)N1)[C@@H](C)O)C(=O)N1CCC[C@H]1C(=O)N[C@@H](CO)C(=O)N[C@@H](CO)C(=O)N[C@H](C(=O)N[C@@H](CC(N)=O)C(=O)N[C@H](C(=O)NCC(=O)N1CCC[C@H]1C(=O)N[C@@H](CCCNC(=N)N)C(=O)N[C@H](C(=O)N[C@@H](Cc1ccc(O)cc1)C(N)=O)[C@@H](C)O)C(C)C)[C@@H](C)O [Example 117] (H-K([γGlu-C20 diacid])CNTATCATQRLAEFLRHSSPNFGAIPSSTNVGPRTY-NH2; disulfide 2-7; N-terminus assumed)	Ratio hCT/hAmylin funct. [1, 6]: 17.0; Ratio rCT/rAmylin binding [4, 24]: 45.5; Ratio rCT/rAmylin binding [4, 25]: 45.5
